Measurements reported in patent US7696408B2, “Method to enhance Agrobacterium-mediated transformation of plants” (Regents of the University of Minnesota, priority 1999, dated 2010).

Legend:
[1] = system: soybean cot-node explants; assay: De novo shoot production on explants at four weeks on shoot induction media; format: cell-based, Glycine max; conditions: for explants producing de novo shoots at four weeks: Experiment #1, Bert; for de novo shoot growth: Experiment #2, MN1301; for explants developing de novo shoots: Experiment #3, MN0901
From the text: The explants were removed from the chamber after 14 days and transferred to fresh shoot induction media containing herbicide selection. During the transfer, the hypocotyl was carefully removed from the developing shoot mass and imbedded into the media with the differentiating tissue flush with the media surface. The plates were placed back into the growth chamber for an additional 2 weeks. At the 4 week time point, explants without de novo shoot production were discarded. The cotyledons were then removed from the differentiating tissue by cutting at the base of the node and the callus trimmed before transferring into shoot elongation media containing MS salts (murashige and Skoog, 1962), MSIII iron stock, 3% sucrose, 3 mM MES, 0.8% agar, and filter sterilized B5 vitamins, 50 mg/l asparagine, 100 mg/l pyroglutamic acid, 1 mg/l zeatin riboside, 0.1 mg/l indole-acetic acid, 0.5 mg/l GA3, 100 mg/l cefotaxime, 500 mg/l ticarcillin, 1.3-5 mg/l PPT; pH 5.6). Also at this time, a percentage of the explants were sliced into about 10 sections and stained for both GUS positive sectors and GUS positive shoots. Every 2 weeks the explants were transferred into new shoot elongation media after removing dead plant tissue and the bottom of the explant cut to encourage shoot elongation of transformed shoots.
Five levels of cysteine were tested: 0 mg/l, 100 mg/l, 200 mg/l, 300 mg/l, and 400 mg/l. Cysteine was incorporated into the solid co-culture media by preparing the media as described hereinabove and dissolving the L-cysteine into the filter sterilized components. For these three experiments, no cysteine was added into the liquid co-cultivation media. To reduce experimental error, explants were placed randomly on all five different treatments and all plates within a treatment were shuffled after completion of the experiment. After co-cultivation, the explants in each treatment were placed on shoot induction media with ½ the concentration of cysteine as in the co-cultivation media. The specific details for each experiment are as follows: • 1. Experiment #1 used the Minnesota genotype Bert and Agrobacterium strain AGL1 containing the BSF16 binary plasmid. A total of 276 explants were wounded and infected with Agrobacterium. After co-cultivation, 10 explants of each treatment were immersed into GUS stain and assayed for transient expression and the remaining explants were washed and transferred to shoot induction media containing 1.33 mg/l PPT for all four weeks. De novo shoots were produced on 74% of the treatments containing 0 mg/l cysteine, 57% on 100 mg/l, 63% on 200 mg/l, 70% on 300 mg/l, and 77% on 400 mg/l at four weeks. […] Experiment #2 used the Minnesota genotype MN1301 and Agrobacterium strain AGL1 containing the BSF16 binary plasmid. A total of 229 explants were dissected, cut, and inoculated. For each cysteine-treatment, half of the explants were incubated during co-cultivation at 21-22° C. and the other half at 25° C. Five explants of each cysteine/temperature treatment were sacrificed to GUS stain and the remaining transferred to fresh shoot induction media containing 1.33 mg/l PPT for 2 weeks. The herbicide level was raised to 3.33 mg/l PPT for the second 2 weeks on shoot induction media. Because of poor de novo shoot growth (35% on 0 mg/l cysteine, 22.8% on 100 mg/l, 32% on 200 mg/l, 42% on 300 mg/l, and 28% on 400 mg/l) and contamination, all explants were sacrificed to GUS stain at the 4 week time point. • 3. Experiment #3 used the Minnesota genotype MN0901 and Agrobacterium strain AGL1 containing the BSF16 binary plasmid. Seedlings were germinated as usual, however, one half of the plates were placed at 4° C. for 24 hours before inoculation. A total of 390 explants were wounded and inoculated. For each cysteine/seedling-temperature treatment, one half of the explants were incubated during co-cultivation at 21-22° C. and the other half at 25° C. […]

soybean = assay: Production of transgenic soybean plants; set-up: species or system Glycine max; conditions: cysteine 400-1000 mg/l
fava bean explants = assay: Enzymatic browning of fava bean explants; format: cell-based; conditions: cysteine (e.g., 400-1000 mg/l) in solid co-cultivation medium
[2] = system: Japonica rice meristem cultures; conditions: individually or in combination; Enríguez-Obregón et al., 1999; cited from earlier work
[3] = system: soybean cot-node explants; assay: De novo shoot production on explants at four weeks on shoot induction media; format: cell-based, Glycine max; conditions: Experiment #4, Bert

In the case of `N[C@@H](CS)C(=O)O` [L-cysteine], the “explants producing de novo shoots at four weeks” value ([1]; 100 mg/l cysteine, control 74%) is reported as 57%, the “explants producing de novo shoots at four weeks” value ([1]; 200 mg/l cysteine) is reported as 63% and the “explants producing de novo shoots at four weeks” value ([1]; 300 mg/l cysteine) is reported as 70%. For the same molecule, the “explants producing de novo shoots at four weeks” value ([1]; 400 mg/l cysteine) was 77%, the “de novo shoot growth” value ([1]; 100 mg/l cysteine, control 35%) was 22.8% and the “de novo shoot growth” value ([1]; 200 mg/l cysteine) was 32%. For the same molecule, the “de novo shoot growth” value ([1]; 300 mg/l cysteine) was 42%, the “de novo shoot growth” value ([1]; 400 mg/l cysteine) was 28% and the “explants developing de novo shoots” value ([1]; 100 mg/l cysteine, control 64%) was 53%. The “explants developing de novo shoots” value ([1]; 200 mg/l cysteine) was 54%, the “explants developing de novo shoots” value ([1]; 300 mg/l cysteine) was 53% and the “explants developing de novo shoots” value ([1]; 400 mg/l cysteine) was 61%. For the same molecule, the “increase in production of transgenic plants” value (soybean) was 2 fold, the “enzymatic browning of fava bean explants” value (fava bean explants) was “decreased” and the “damage and viability of Japonica rice meristem cultures” value [2] was “decreased damage and increased viability”. For the same molecule, the “explants that developed de novo shoots” value ([3]; 0S,400L) was 75%, the “explants that developed de novo shoots” value ([3]; 400L,0S (mg/l cysteine liquid, solid), control 0L,0S 76%) was 47% and the “explants that developed de novo shoots” value ([3]; 400L,400S) was 68%.
